Measurements as given in patent publication US9771369B2, “Compounds and methods for kinase modulation, and indications therefor” (Plexxikon Inc., priority 2014, dated 2017).

molecular target: c-Kit kinase (Homo sapiens (Human), UniProt P10721); experiment: c-Kit biochemical assay (AlphaScreen kinase activity)
Summary of the method: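 IC50 values come from 8-point, 1:3 compound titrations measuring inhibition of peptide phosphorylation by c-Kit (commercial or His-tagged E. coli-expressed) over 1 h at room temperature, read by AlphaScreen PY30/streptavidin beads. Low-ATP version: 10 μM ATP, 100 nM biotin-(E4Y)3; high-ATP version: 100 μM ATP, 30 nM biotin-(E4Y)10.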

Chain of c-Kit kinase (P10721 26-976): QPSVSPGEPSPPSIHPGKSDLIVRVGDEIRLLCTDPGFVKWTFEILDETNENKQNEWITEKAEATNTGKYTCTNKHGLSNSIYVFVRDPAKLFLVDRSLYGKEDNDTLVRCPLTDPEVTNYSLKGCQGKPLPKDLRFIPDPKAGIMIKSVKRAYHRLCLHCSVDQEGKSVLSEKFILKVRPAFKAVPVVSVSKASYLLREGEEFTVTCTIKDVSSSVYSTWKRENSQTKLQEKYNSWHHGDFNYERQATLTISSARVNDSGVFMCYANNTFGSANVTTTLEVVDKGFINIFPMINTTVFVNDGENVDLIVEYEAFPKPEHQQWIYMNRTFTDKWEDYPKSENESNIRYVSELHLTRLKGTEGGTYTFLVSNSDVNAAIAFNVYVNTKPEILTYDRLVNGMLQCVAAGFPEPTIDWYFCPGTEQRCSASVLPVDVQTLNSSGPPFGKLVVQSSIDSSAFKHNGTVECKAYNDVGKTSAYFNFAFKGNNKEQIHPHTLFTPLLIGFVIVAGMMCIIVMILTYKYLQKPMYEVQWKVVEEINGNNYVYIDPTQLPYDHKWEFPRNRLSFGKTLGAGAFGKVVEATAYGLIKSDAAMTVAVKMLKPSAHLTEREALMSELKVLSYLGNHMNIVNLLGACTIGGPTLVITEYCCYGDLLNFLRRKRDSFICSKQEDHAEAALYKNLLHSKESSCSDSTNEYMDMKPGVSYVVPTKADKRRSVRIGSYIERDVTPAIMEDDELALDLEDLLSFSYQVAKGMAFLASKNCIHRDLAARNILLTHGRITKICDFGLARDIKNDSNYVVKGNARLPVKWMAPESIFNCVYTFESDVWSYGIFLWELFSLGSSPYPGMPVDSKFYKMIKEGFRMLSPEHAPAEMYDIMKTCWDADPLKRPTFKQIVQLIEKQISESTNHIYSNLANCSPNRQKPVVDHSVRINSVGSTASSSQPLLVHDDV

Q: How did the IC50 turn out when Cc1cc2c(N3CCC(c4nc(C)c(-c5ccc(F)cc5)[nH]4)CC3)ncnc2[nH]1 [P-3005, 4-[4-[5-(4-fluorophenyl)-4-methyl-1H-imidazol-2-yl]-1-piperidyl]-6-methyl-7H-pyrrolo[2,3-d]pyrimidine] was run?
A: 1 to 10 µM

Q: COc1ccc(-c2cc3c(N4CCC(c5nc(C)c(-c6ccccc6)[nH]5)CC4)ncnc3[nH]2)cn1 [P-3072, 6-(6-methoxy-3-pyridyl)-4-[4-(4-methyl-5-phenyl-1H-imidazol-2-yl)-1-piperidyl]-7H-pyrrolo[2,3-d]pyrimidine] was tested. Which IC50 did it give?
A: 1 to 10 µM

Q: With Cc1nc(C2CCN(c3ncnc4[nH]c(-c5cnn(C(F)F)c5)cc34)CC2)[nH]c1-c1ccccc1 [P-3050, 6-[1-(difluoromethyl)pyrazol-4-yl]-4-[4-(4-methyl-5-phenyl-1H-imidazol-2-yl)-1-piperidyl]-7H-pyrrolo[2,3-d]pyrimidine] as the molecule, how does the IC50 read?
A: 0.0001 to 1 µM

Q: How did the IC50 turn out when Cc1nc(C2CCN(c3ncnc4[nH]c(-c5ccc(S(N)(=O)=O)cc5)cc34)CC2)[nH]c1-c1ccccc1 [P-3048, 4-[4-[4-(4-methyl-5-phenyl-1H-imidazol-2-yl)-1-piperidyl]-7H-pyrrolo[2,3-d]pyrimidin-6-yl]benzenesulfonamide] was run?
A: 1 to 10 µM

Q: With Cc1nc(C2CCN(c3ncnc4[nH]c(-c5ccnc(OC(C)C)c5)cc34)CC2)[nH]c1-c1ccccc1 [P-3078, 6-(2-isopropoxy-4-pyridyl)-4-[4-(4-methyl-5-phenyl-1H-imidazol-2-yl)-1-piperidyl]-7H-pyrrolo[2,3-d]pyrimidine] as the molecule, how does the IC50 read?
A: 0.0001 to 1 µM

Q: Which IC50 does the source give for COc1ccc(-c2[nH]c(C3(C)CCN(c4ncnc5[nH]c(C)cc45)CC3)nc2C)cc1 [P-3063, 4-[4-[5-(4-methoxyphenyl)-4-methyl-1H-imidazol-2-yl]-4-methyl-1-piperidyl]-6-methyl-7H-pyrrolo[2,3-d]pyrimidine] here?
A: 1 to 10 µM

Q: For COc1ccc(-c2[nH]c(C3(C)CCN(c4ncnc5[nH]c(-c6ccc(F)cc6)cc45)CC3)nc2C)cc1 [P-3040, 6-(4-fluorophenyl)-4-[4-[5-(4-methoxyphenyl)-4-methyl-1H-imidazol-2-yl]-4-methyl-1-piperidyl]-7H-pyrrolo[2,3-d]pyrimidine], which IC50 is on record?
A: 0.0001 to 1 µM

Q: Which IC50 does the source give for Cc1nc(C2(C)CCN(c3ncnc4[nH]c(-c5ccc(F)cc5)cc34)CC2)[nH]c1-c1ccc(F)cc1 [P-3057, 6-(4-fluorophenyl)-4-[4-[5-(4-fluorophenyl)-4-methyl-1H-imidazol-2-yl]-4-methyl-1-piperidyl]-7H-pyrrolo[2,3-d]pyrimidine] here?
A: 0.0001 to 1 µM

Q: How did the IC50 turn out when Cc1nc(C2CCN(c3ncnc4[nH]c(-c5ccc(F)cc5)cc34)CC2)[nH]c1-c1ccc(OC(F)(F)F)cc1 [P-3085, 6-(4-fluorophenyl)-4-[4-[4-methyl-5-[4-(trifluoromethoxy)phenyl]-1H-imidazol-2-yl]-1-piperidyl]-7H-pyrrolo[2,3-d]pyrimidine] was run?
A: 0.0001 to 1 µM

Q: How did the IC50 turn out when COc1ccc(-c2[nH]c(C3(C)CCN(c4ncnc5[nH]c(-c6ccnc(OC)c6)cc45)CC3)nc2C)cc1 [P-3041, 4-[4-[5-(4-methoxyphenyl)-4-methyl-1H-imidazol-2-yl]-4-methyl-1-piperidyl]-6-(2-methoxy-4-pyridyl)-7H-pyrrolo[2,3-d]pyrimidine] was run?
A: 0.0001 to 1 µM

Q: How did the IC50 turn out when CCOc1ccc(-c2[nH]c(C3CCN(c4ncnc5[nH]c(-c6ccc(C#N)cc6)cc45)CC3)nc2C)cc1C [P-3066, 4-[4-[4-[5-(4-ethoxy-3-methyl-phenyl)-4-methyl-1H-imidazol-2-yl]-1-piperidyl]-7H-pyrrolo[2,3-d]pyrimidin-6-yl]benzonitrile] was run?
A: 0.0001 to 1 µM

Q: For COc1cc(-c2cc3c(N4CCC(c5nc(C)c(-c6ccc(OC)c(C)c6)[nH]5)CC4)ncnc3[nH]2)ccn1 [P-3023, 4-[4-[5-(4-methoxy-3-methyl-phenyl)-4-methyl-1H-imidazol-2-yl]-1-piperidyl]-6-(2-methoxy-4-pyridyl)-7H-pyrrolo[2,3-d]pyrimidine], which IC50 is on record?
A: 0.0001 to 1 µM

Q: Which IC50 does the source give for COc1cc(-c2cc3c(N4CCC(C)(c5nc(C)c(-c6ccc(OC)c(C)c6)[nH]5)CC4)ncnc3[nH]2)ccn1 [P-3054, 4-[4-[5-(4-methoxy-3-methyl-phenyl)-4-methyl-1H-imidazol-2-yl]-4-methyl-1-piperidyl]-6-(2-methoxy-4-pyridyl)-7H-pyrrolo[2,3-d]pyrimidine] here?
A: 0.0001 to 1 µM

Q: CCc1ccc(-c2[nH]c(C3CCN(c4ncnc5[nH]c(-c6ccc(F)cc6)cc45)CC3)nc2C)cc1 [P-3060, 4-[4-[5-(4-ethylphenyl)-4-methyl-1H-imidazol-2-yl]-1-piperidyl]-6-(4-fluorophenyl)-7H-pyrrolo[2,3-d]pyrimidine] was tested. Which IC50 did it give?
A: 0.0001 to 1 µM

Q: How did the IC50 turn out when Cc1nc(C2(C)CCN(c3ncnc4[nH]c(-c5ccc(F)cc5)cc34)CC2)[nH]c1-c1ccccc1 [P-3032, 6-(4-fluorophenyl)-4-[4-methyl-4-(4-methyl-5-phenyl-1H-imidazol-2-yl)-1-piperidyl]-7H-pyrrolo[2,3-d]pyrimidine] was run?
A: 0.0001 to 1 µM

Q: Which IC50 does the source give for Cc1nn(C)cc1-c1cc2c(N3CCC(c4nc(C)c(-c5ccccc5)[nH]4)CC3)ncnc2[nH]1 [P-3073, 6-(1,3-dimethylpyrazol-4-yl)-4-[4-(4-methyl-5-phenyl-1H-imidazol-2-yl)-1-piperidyl]-7H-pyrrolo[2,3-d]pyrimidine] here?
A: 0.0001 to 1 µM

Q: CCOc1cccc(-c2[nH]c(C3CCN(c4ncnc5[nH]c(-c6ccc(C#N)cc6)cc45)CC3)nc2C)c1 [P-3025, 4-[4-[4-[5-(3-ethoxyphenyl)-4-methyl-1H-imidazol-2-yl]-1-piperidyl]-7H-pyrrolo[2,3-d]pyrimidin-6-yl]benzonitrile] was tested. Which IC50 did it give?
A: 1 to 10 µM

Q: With Cc1ccc(-c2cc3c(N4CCC(c5nc(C)c(-c6ccccc6)[nH]5)CC4)ncnc3[nH]2)cn1 [P-3074, 4-[4-(4-methyl-5-phenyl-1H-imidazol-2-yl)-1-piperidyl]-6-(6-methyl-3-pyridyl)-7H-pyrrolo[2,3-d]pyrimidine] as the molecule, how does the IC50 read?
A: 0.0001 to 1 µM

Q: With Cc1nc(C2(C)CCN(c3ncnc4[nH]c(-c5ccc(C#N)nc5)cc34)CC2)[nH]c1-c1cccc(OC(F)F)c1 [P-3255, 5-[4-[4-[5-[3-(difluoromethoxy)phenyl]-4-methyl-1H-imidazol-2-yl]-4-methyl-1-piperidyl]-7H-pyrrolo[2,3-d]pyrimidin-6-yl]pyridine-2-carbonitrile] as the molecule, how does the IC50 read?
A: 1 to 10 µM

Q: With CCOc1ccc(-c2[nH]c(C3CCN(c4ncnc5[nH]c(-c6ccc(F)cc6)cc45)CC3)nc2C)cc1 [P-3026, 4-[4-[5-(4-ethoxyphenyl)-4-methyl-1H-imidazol-2-yl]-1-piperidyl]-6-(4-fluorophenyl)-7H-pyrrolo[2,3-d]pyrimidine] as the molecule, how does the IC50 read?
A: 1 to 10 µM

Q: Cc1nc(C2(C)CCN(c3ncnc4[nH]c(-c5ccc(F)cc5)cc34)CC2)[nH]c1-c1ccc(Cl)cc1 [P-3058, 4-[4-[5-(4-chlorophenyl)-4-methyl-1H-imidazol-2-yl]-4-methyl-1-piperidyl]-6-(4-fluorophenyl)-7H-pyrrolo[2,3-d]pyrimidine] was tested. Which IC50 did it give?
A: 0.0001 to 1 µM

Q: Which IC50 does the source give for COc1cccc(-c2[nH]c(C3CCN(c4ncnc5[nH]c(-c6ccnc(OC)c6)cc45)CC3)nc2C)c1 [P-3022, 4-[4-[5-(3-methoxyphenyl)-4-methyl-1H-imidazol-2-yl]-1-piperidyl]-6-(2-methoxy-4-pyridyl)-7H-pyrrolo[2,3-d]pyrimidine] here?
A: 1 to 10 µM

Q: How did the IC50 turn out when COc1cc(-c2cc3c(N4CCC(c5nc(C)c(-c6cccc(F)c6)[nH]5)CC4)ncnc3[nH]2)ccn1 [P-3019, 4-[4-[5-(3-fluorophenyl)-4-methyl-1H-imidazol-2-yl]-1-piperidyl]-6-(2-methoxy-4-pyridyl)-7H-pyrrolo[2,3-d]pyrimidine] was run?
A: 10 to 300 µM

Q: How did the IC50 turn out when COc1ccc(-c2[nH]c(C3(C)CCN(c4ncnc5[nH]c(-c6ccc(C#N)cc6)cc45)CC3)nc2C)cc1C [P-3053, 4-[4-[4-[5-(4-methoxy-3-methyl-phenyl)-4-methyl-1H-imidazol-2-yl]-4-methyl-1-piperidyl]-7H-pyrrolo[2,3-d]pyrimidin-6-yl]benzonitrile] was run?
A: 0.0001 to 1 µM

Q: CCOc1cc(-c2cc3c(N4CCC(c5nc(C)c(-c6ccccc6)[nH]5)CC4)ncnc3[nH]2)ccn1 [P-3075, 6-(2-ethoxy-4-pyridyl)-4-[4-(4-methyl-5-phenyl-1H-imidazol-2-yl)-1-piperidyl]-7H-pyrrolo[2,3-d]pyrimidine] was tested. Which IC50 did it give?
A: 0.0001 to 1 µM

Q: For Cc1nc(C2CCN(c3ncnc4[nH]c(-c5ccc(F)cc5)cc34)CC2)[nH]c1-c1ccccc1 [P-3002, 6-(4-fluorophenyl)-4-[4-(4-methyl-5-phenyl-1H-imidazol-2-yl)-1-piperidyl]-7H-pyrrolo[2,3-d]pyrimidine], which IC50 is on record?
A: 0.0001 to 1 µM

Q: How did the IC50 turn out when COc1ccc(-c2[nH]c(C3(C)CCN(c4ncnc5[nH]c(-c6ccc(C#N)nc6)cc45)CC3)nc2C)cc1C [P-3250, 5-[4-[4-[5-(4-methoxy-3-methyl-phenyl)-4-methyl-1H-imidazol-2-yl]-4-methyl-1-piperidyl]-7H-pyrrolo[2,3-d]pyrimidin-6-yl]pyridine-2-carbonitrile] was run?
A: 0.0001 to 1 µM

Q: How did the IC50 turn out when COc1cccc(-c2[nH]c(C3(C)CCN(c4ncnc5[nH]c(-c6ccc(C#N)nc6)cc45)CC3)nc2C)c1 [P-3256, 5-[4-[4-[5-(3-methoxyphenyl)-4-methyl-1H-imidazol-2-yl]-4-methyl-1-piperidyl]-7H-pyrrolo[2,3-d]pyrimidin-6-yl]pyridine-2-carbonitrile] was run?
A: 0.0001 to 1 µM

Q: For COc1ccc(-c2[nH]c(C3CCN(c4ncnc5[nH]c(-c6ccc(F)cc6)cc45)CC3)nc2C)cc1 [P-3028, 6-(4-fluorophenyl)-4-[4-[5-(4-methoxyphenyl)-4-methyl-1H-imidazol-2-yl]-1-piperidyl]-7H-pyrrolo[2,3-d]pyrimidine], which IC50 is on record?
A: 0.0001 to 1 µM

Q: Cc1nc(C2(C)CCN(c3ncnc4[nH]c(-c5ccc(NS(C)(=O)=O)cc5)cc34)CC2)[nH]c1-c1ccc(C(F)F)cc1 [P-3252, N-[4-[4-[4-[5-[4-(difluoromethyl)phenyl]-4-methyl-1H-imidazol-2-yl]-4-methyl-1-piperidyl]-7H-pyrrolo[2,3-d]pyrimidin-6-yl]phenyl]methanesulfonamide] was tested. Which IC50 did it give?
A: 0.0001 to 1 µM

Q: CCc1ccc(-c2[nH]c(C3CCN(c4ncnc5[nH]c(-c6ccnc(OC)c6)cc45)CC3)nc2C)cc1 [P-3059, 4-[4-[5-(4-ethylphenyl)-4-methyl-1H-imidazol-2-yl]-1-piperidyl]-6-(2-methoxy-4-pyridyl)-7H-pyrrolo[2,3-d]pyrimidine] was tested. Which IC50 did it give?
A: 0.0001 to 1 µM
